# Columns and labels:
# Assay in all cases: MIC by agar-dilution, in vitro antibacterial test
# Type in all cases: cell-based
# Salmonella dublin = details: Code No. A20, Jewell and Pearmain agar medium, inoculum ~10^5 CFU
# Source text: (§1) As noted above the cephalosporin derivative of the invention has antibacterial properties, having a broad spectrum of activity in vitro against standard laboratory microorganisms, both Gram-negative and Gram-positive, which are used to screen for activity against pathogenic bacteria. The antibacterial spectrum and potency of a particular compound may be determined in a standard test system.
# (§2) The results set out in the following Table of the compound described in Example 1 are illustrative of the biological activity of the compounds of the present invention. The results are those obtained on a standard in vitro test system using Jewell and Pearmain agar medium. The antibacterial activity is described in terms of the minimum inhibitory concentration (MIC) determined by agar - dilution technique with an inoculum size of ~10^5 CFU.
# Proteus mirabilis = details: Code No. A18, Jewell and Pearmain agar medium, inoculum ~10^5 CFU
# Source text: as §1, §2
# E. coli = details: Code No. A8, Jewell and Pearmain agar medium, inoculum ~10^5 CFU
# Source text: as §1, §2
# Serratia marescens = details: Code No. A16, Jewell and Pearmain agar medium, inoculum ~10^5 CFU
# Source text: as §1, §2
# Strep. pyrogenes = details: Code No. A1, Jewell and Pearmain agar medium, inoculum ~10^5 CFU
# Source text: as §1, §2
# K. aerogenes = details: Code No. A10, Jewell and Pearmain agar medium, inoculum ~10^5 CFU
# Source text: as §1, §2
# Ps. aeruginosa = details: Code No. A21, Jewell and Pearmain agar medium, inoculum ~10^5 CFU
# Source text: as §1, §2
# Staph. aureus = details: Code No. A6, Jewell and Pearmain agar medium, inoculum ~10^5 CFU
# Source text: as §1, §2
# Ent. cloacae = details: Code No. A13, Jewell and Pearmain agar medium, inoculum ~10^5 CFU
# Source text: as §1, §2
smiles,measurement,setting,value
"CC(=O)OCC1=C(C(=O)O)N2C(=O)C(Nc3ncc[nH]3)C2[S+]([O-])C1.O=C(O)C(F)(F)F (stereo not drawn) [Example 1, 3-acetoxymethyl-7-(imidazol-2-yl)aminoceph-3-em-1β-oxide-4-carboxylicacid trifluoroacetate]",minimum inhibitory concentration (MIC),Salmonella dublin,1 µg/mL
same,minimum inhibitory concentration (MIC),Proteus mirabilis,> 128 µg/mL
same,minimum inhibitory concentration (MIC),E. coli,2 µg/mL
same,minimum inhibitory concentration (MIC),Serratia marescens,64 µg/mL
same,minimum inhibitory concentration (MIC),Strep. pyrogenes,64 µg/mL
same,minimum inhibitory concentration (MIC),K. aerogenes,4 µg/mL
same,minimum inhibitory concentration (MIC),Ps. aeruginosa,> 128 µg/mL
same,minimum inhibitory concentration (MIC),Staph. aureus,> 128 µg/mL
same,minimum inhibitory concentration (MIC),Ent. cloacae,2 µg/mL

# — patent US4504478A, “Cephalosporin-1-oxide derivatives” (Imperial Chemical Industries PLC, priority 1982, dated 1985)
